Activity calls are given as the source filed them. The calls are words filed in the database; no cut-off is given here.
Tests used:
Format in all cases: functional
[1] = system: SK-MEL-5; assay: Growth inhibition of human SK-MEL-5 cells at 10 uM after 48 hrs by SRB assay relative to control; settings: SK-MEL-5, 48 h, read-out: GI
[2] = system: SK-MEL-2; assay: Growth inhibition of human SK-MEL-2 cells at 10 uM after 48 hrs by SRB assay relative to control; settings: SK-MEL-2, 48 h, read-out: GI
[3] = system: SK-OV-3; assay: Growth inhibition of human SKOV3 cells at 10 uM after 48 hrs by SRB assay relative to control; settings: SK-OV-3, 48 h, read-out: GI
[4] = system: PC-3; assay: Growth inhibition of human PC3 cells at 10 uM after 48 hrs by SRB assay relative to control; settings: PC-3, 48 h, read-out: GI
[5] = system: MOLT-4; assay: Growth inhibition of human MOLT4 cells at 10 uM after 48 hrs by SRB assay relative to control; settings: MOLT-4, 48 h, read-out: GI
[6] = system: OVCAR-4; assay: Growth inhibition of human OVCAR4 cells at 10 uM after 48 hrs by SRB assay relative to control; settings: OVCAR-4, 48 h, read-out: GI
[7] = system: Malme-3M; assay: Growth inhibition of human MALME-3M cells at 10 uM after 48 hrs by SRB assay relative to control; settings: read-out: GI
[8] = system: CAKI-1; assay: Growth inhibition of human Caki1 cells at 10 uM after 48 hrs by SRB assay relative to control; settings: CAKI-1, 48 h, read-out: GI
[9] = system: HT-29; assay: Growth inhibition of human HT-29 cells at 10 uM after 48 hrs by SRB assay relative to control; settings: HT-29, 48 h, read-out: GI
[10] = system: CCRF-CEM; assay: Growth inhibition of human CCRF-CEM cells at 10 uM after 48 hrs by SRB assay relative to control; settings: read-out: GI
[11] = system: NCI-H522; assay: Growth inhibition of human NCI-H522 cells at 10 uM after 48 hrs by SRB assay relative to control; settings: NCI-H522, 48 h, read-out: GI
[12] = system: SR; assay: Growth inhibition of human SR cells at 10 uM after 48 hrs by SRB assay relative to control; settings: read-out: GI
[13] = system: 786-0; assay: Growth inhibition of human 786-0 cells at 10 uM after 48 hrs by SRB assay relative to control; settings: for inhibition of growth at 10 µM: 786-0, 48 h, read-out: GI
[14] = system: UACC-257; assay: Growth inhibition of human UACC257 cells at 10 uM after 48 hrs by SRB assay relative to control
[15] = system: HOP-92; assay: Growth inhibition of human HOP92 cells at 10 uM after 48 hrs by SRB assay relative to control; settings: HOP-92, 48 h, read-out: GI
[16] = system: U-251; assay: Growth inhibition of human U251 cells at 10 uM after 48 hrs by SRB assay relative to control; settings: U-251, 48 h, read-out: GI
[17] = system: HOP-62; assay: Growth inhibition of human HOP62 cells at 10 uM after 48 hrs by SRB assay relative to control; settings: HOP-62, 48 h, read-out: GI

| Structure (SMILES) | inhibition of growth at 10 µM [1] | inhibition of growth at 10 µM [2] | inhibition of growth at 10 µM [3] | inhibition of growth at 10 µM [4] | inhibition of growth at 10 µM [5] | inhibition of growth at 10 µM [6] | inhibition of growth at 10 µM [7] | inhibition of growth at 10 µM [8] | inhibition of growth at 10 µM [9] | inhibition of growth at 10 µM [10] | inhibition of growth at 10 µM [11] | inhibition of growth at 10 µM [12] | growth inhibition (GI) [13] | growth inhibition (GI) [14] | inhibition of growth at 10 µM [15] | inhibition of growth at 10 µM [16] | inhibition of growth at 10 µM [17] | inhibition of growth at 10 µM [13] | inhibition of growth at 10 µM ([14]; UACC-257, 48 h, read-out: GI) |
| --- | --- | --- | --- | --- | --- | --- | --- | --- | --- | --- | --- | --- | --- | --- | --- | --- | --- | --- | --- |
| COc1ccc(Cc2nnc(SCC(=O)Nc3ccc(Cl)cc3)n2-c2ccccc2)cc1 | 3.39% | 3.18% | 14.1% | 45.2% | 42.3% | 1.8% | 11.7% | 13.7% | 2.73% | 21.4% | 22.3% | 31.2% | inactive | inactive | 30% | 4.12% | 8.3% | – | – |
| COc1ccc(Cc2nnc(SCC(=O)c3ccc(Cl)cc3)n2-c2ccc(C)cc2)cc1 | 1.52% | 10% | 1.07% | 26% | 32.7% | 18.6% | 12% | 6.12% | 4.07% | 23% | 23% | 20% | inactive | inactive | 36.9% | 10.4% | 11.7% | – | – |
| COc1ccc(Cc2nnc(SCC(=O)c3ccc(Cl)cc3)n2Cc2ccccc2)cc1 | 5.52% | 13% | 17% | 51.8% | 28.6% | 10% | 3% | 23.7% | 3% | 20% | 30% | 22.2% | – | – | 39.3% | 8.87% | 11.2% | 3.19% | 6.9% |
| COc1ccc(Cc2nnc(SCC(=O)c3ccc(Cl)cc3)n2-c2ccccc2)cc1 | 7% | 11.5% | 7.83% | 36.2% | 24% | 22% | 16.9% | 13.5% | 2.08% | 7.71% | 21% | 24.1% | – | inactive | 24.1% | 10.1% | 1.26% | 7.77% | – |
| COc1ccc(Cc2nnc(SCC(=O)Nc3ccc(Cl)cc3)n2Cc2ccccc2)cc1 | 4.45% | 17.2% | 16.2% | 47.3% | 36% | 11.8% | 5.6% | 21.4% | 10% | 22.4% | 29.3% | 25.7% | – | inactive | 29.8% | 5.5% | 12% | 11.4% | – |

Source: ChEMBL document CHEMBL4190322, “Structure-based development of novel triazoles and related thiazolotriazoles as anticancer agents and Cdc25A/B phosphatase inhibitors. Synthesis, in vitro biological evaluation, molecular docking and in silico ADME-T studies” (Eur J Med Chem, 2017)
